# “Also recorded” adds a separate entry of the source.
# Tests used:
# [1] = isosorbide dinitrate in an aqueous suspension; Fragrance Journal, p34, 1996-4; cited from earlier work
# [2] = combined together with indomethacin; YAKUZAIGAKU vol.56 No.3 (1996), DDS Vol. 12 No. 2 (1997); cited from earlier work
# skin of Yucatan Micropig [3] = test: Dermal permeation test of IM, Example 2, water/1,3-butylene glycol samples; assay type: in vitro ADME; details: indomethacin 0.05 g, promoting agent 0.3 g, water 6.0 ml / 1,3-BG 4.0 ml
# Method: (§1) A skin of Yucatan Micropig [5 month-old, male, NIPPON CHARLES RIVER (KK)] stored frozen at −80° C. was thawed at room temperature and, after removing an unwanted fat adhering to the skin, cut into pieces, each in about 2 cm square, which were subjected to a permeation test.
# (§2) In the permeation test, a diffusion cell of a modified Franz type (valid surface area: 1.1 cm^2, receptor phase: 16 ml) containing a phosphate buffer, pH7.1, was provided on the receptor phase side, which was stirred with a star-head magnet at 600 rpm with keeping at 37° C. On the donor side, 0.5 ml of a sample solution was contained and closed with a glass ball in order to prevent the evaporation of the sample solution. At a predetermined time, an aliquot was sampled and an equal volume of a buffer solution was supplemented. A receptor phase fractionated was subjected to a high pressure liquid chromatography (HPLC) to quantify the drug which had permeated. The permeation test was continued over a period of 30 to 48 hours.
# A lipophilic agent indomethacin (IM) was used to compare the dermal absorption-promoting effect of p-menthane-3,8-diol (MDM: mixture of trans and cis forms) with those of l-menthol (LM) together with a control.
# skin of Yucatan Micropig [4] = test: Dermal permeation test of antipyrine (ANP), Example 1, water/ethanol samples, modified Franz diffusion cell; assay type: in vitro ADME; details: promoting agent dissolved in ethanol and combined with water, 37° C., 30 to 48 hours
# Excerpt: (§3) A lipophilic agent indomethacin (IM) and a hydrophilic agent antipyrine (ANP) were used to compare the dermal absorption-promoting effect of p-menthane-3,8-diol (MDM: mixture of trans and cis forms) with those of l-menthol (LM) and 3-l-menthoxypropane-1,2-diol (MPD) together with a control.
# (§4) According to the formulations shown in Table 1 (IM) and Table 2 (ANP), each of the three dermal absorption-promoting agents was employed, dissolved in ethanol and combined with water to prepare a sample. The samples thus prepared were stored at 37° C. until use.
# as §1
# (§5) In the permeation test, a diffusion cell of a modified Franz type (valid surface area: 1.1 cm^2, receptor phase: 16 ml) containing a phosphate buffer, pH7.1, was provided on the receptor phase side, which was stirred with a star-head magnet at 600 rpm with keeping at 37° C. […] A receptor phase fractionated was subjected to a high pressure liquid chromatography (HPLC) to quantify the drug which had permeated. […]
# (§6) IM and ANP were determined using an UV spectrophotometer model SPD-6A (SHIMADZU) at wavelengths of 254 nm and 245 nm, respectively. […]
# mosquito = details: known from prior art; cited from earlier work
# skin of Yucatan Micropig [5] = test: Dermal permeation test of IM, Example 3, water/1,3-butylene glycol samples, MDM, MPD and 1:1 combination; assay type: in vitro ADME; details: indomethacin 0.05 g, promoting agent 0.3 g total (combination 0.15 g + 0.15 g), water 6.0 ml / 1,3-BG 4.0 ml
# Method: as §1
# as §2, with “hours. […]” for “hours.”
# skin of Yucatan Micropig [6] = test: Dermal permeation test of indomethacin (IM), Example 1, water/ethanol samples, modified Franz diffusion cell; assay type: in vitro ADME; details: indomethacin 0.05 g, promoting agent 0.3 g, water 6.0 ml / ethanol 4.0 ml, 37° C., 30 to 48 hours
# Excerpt: as §3, §4, §1, §5, §6
smiles,measurement,setting,value
"CC12CCC(CC1)C(C)(C)O2 [1,8-cineol]",promotion of dermal permeation of isosorbide dinitrate,[1],promoted greatly
"CC(C)[C@@H]1CC[C@@H](C)C[C@H]1O [LM, l-menthol]",promotion of dermal absorption of indomethacin,[2],promotes the dermal absorption of indomethacin
same,promotion of dermal permeation of isosorbide dinitrate,[1],promoted greatly
"CC1CCC(C(C)(C)O)C(O)C1 (centres unmarked) [MDM, p-menthane-3,8-diol]","dermal permeation-promoting ability (cumulative permeation of IM vs time, FIG. 3)",skin of Yucatan Micropig [3],"exhibited a dermal permeation-promoting ability, although the ability was not as high as that of LM; also recorded: promoted the dermal permeation of IM"
same,"dermal permeation-promoting ability (cumulative permeation of ANP vs time, FIG. 2)",skin of Yucatan Micropig [4],"exhibited a dermal permeation-promoting ability, although the ability was not as high as that of LM and MPD; also recorded: promoted the dermal permeation of ANP"
same,"dermal permeation-promoting ability (cumulative permeation of ANP vs time, FIG. 2)","skin of Yucatan Micropig [4]; listed as p-menthane-3,8-diol",promoted the dermal permeation of both of lipophilic agent indomethacin and hydrophilic antipyrine
same,repelling effect on a mosquito,mosquito,known to have a repelling effect on a mosquito
same,"dermal permeation-promoting ability (cumulative permeation of IM vs time, FIG. 4)",skin of Yucatan Micropig [5],higher than that of MPD
same,"dermal permeation-promoting ability (cumulative permeation of IM vs time, FIG. 1)",skin of Yucatan Micropig [6],not as high as that of LM but was higher than that of MPD; also recorded: promoted the dermal permeation of IM
same,"dermal permeation-promoting ability (cumulative permeation of IM vs time, FIG. 1)","skin of Yucatan Micropig [6]; listed as p-menthane-3,8-diol",promoted the dermal permeation of both of lipophilic agent indomethacin and hydrophilic antipyrine
"CC1CCC(C(C)C)C(OCC(O)CO)C1 (stereo not drawn) [MPD, 3-l-menthoxypropane-1,2-diol]",promotion of dermal absorption of indomethacin,[2],somewhat lower than that of l-menthol; also recorded: promotes the dermal absorption of indomethacin

# Source: patent US6410034B1, “Dermal absorption-promoting agent” (Takasago International Corporation, priority 1998, dated 2002)
